# Entries after “also recorded” stand apart in the source; their conditions may differ. Where a SMILES comes first, the peptide text is derived from it. Bridges are numbered along the chain shown (N, C = ends). The star is where a group is joined. Lauroyl = CCCCCCCCCCCC(=O)*
# Legend:
# [1] = tested on: human umbilical chord artery endothelial cells (HUAEC); test: Ca-influx after vasopressin analog stimulation of HUAEC, samples pre-incubated in human serum; type: cell-based; parameters: key to Activity of Various Vasopressin Analogs, 0 h / Activity of Various Vasopressin Analogs, 1 h / Activity of Various Vasopressin Analogs, 2 h / Activity of Various Vasopressin Analogs, 4 h: “−” for no detectable activity; “+” to “+++” for slight to high activity; “+” to “+++” for slight to high activity; “+” to “+++” for slight to high activity
# Description: Ca-influx after vasopressin analog stimulation of human umbilical chord artery endothelial cells (HUAEC) was used to test the biological activity of the various vasopressin analogs. The material used were: 75 cm^2 tissue culture flasks, BD Bioscience, Bedford Mass. (catalogue number 137787) with 0.2 μm vented blue plug seal caps (catalogue number 353136); human umbilical artery endothelial cells (HUAEC), Lonza, Walkersville, Md. (catalogue number CC-2520); EGM-2 fully supplement medium, Lonza, Walkersville, Md. (catalogue number CC-3162); Fura-2 AM, Invitrogen/Molecular Probes, Carlsbad, Calif. (catalogue number F-1221) (Fura-2 AM is a high affinity, intracellular calcium indicator that is ratiometric and UV light-excitable; the acetoxymethyl (AM) ester form is useful for noninvasive intracellular loading as it is cell permeable. Once inside the cell the ester is clipped which renders the Fura-2 molecule cell impermeable and therefore trapped inside.); terlipressin derivatives custom made by Anaspec, San Jose Calif., according to inventors specifications; pooled human serum, Sigma, St. Louis, Mo. (catalogue number H4522); phosphate buffered saline (PBS), Fisher Scientific, Fair Lawn, N.J. (catalogue number BP399-500); trypsin-EDTA solution, 0.25%, Invitrogen/Gibco, Carlsbad, Calif. (catalogue number 25200-072); heat inactivated fetal bovine serum (FBS), Invitrogen/Gibco, Carlsbad, Calif. (catalogue number 10438-026); black polystyrene 96 well flat-bottom assay plates, Corning Inc., Corning, N.Y. (catalogue number 3916); Chameleon plate multilabel detection reader, Hidex, Turku, Finland, distributed by Bioscan, Washington, D.C.; dimethyl sulfoxide (DMSO), Fisher Scientific, Fair Lawn, N.J. (catalogue number D-136-1).
# The methods used for tissue or cell culture are as follows: a vial of HUAEC (>0.5×10^6 cells) was thawed and seeded in two 75 cm^2 flasks with 15 ml EGM-2 medium each. Cells were grown over night and medium was changed. Media in the flasks were changed on a Monday, Wednesday, Friday schedule. Cells were split at approximately 80% confluency (using trypsin). Media were removed and the flasks were washed with 10 ml 1×PBS. The PBS was removed, 1.5 ml trypsin-EDTA solution was added and incubated for 5 min at 37° C. Three ml of FBS added and the cells were counted. The cells were centrifuged at 200×G for 5 min, resuspended in EGM-2 medium and distributed into new 75 cm2 flasks @ 3000-5000 cells per cm2.
# To prepare for the Ca2+-influx assay, cells were distributed into one black 96 well plate @ 10^5 cells/well. Cells were allowed to adhere overnight and the medium was then removed. Fifty μg Fura-2 was dissolved in 50 μl DMSO and added to 10 ml PBS/2% FBS. The cells were stained with 20 μl of 5 μg/ml Fura-2 in PBS/2% FBS for 2 h, then 180 μl EGM-2 medium supplemented with CaCl2 and glucose was added (10 mM CaCl2 and 11.1 mM glucose final concentrations).
# To prepare analogs for testing, 50 uM terlipressin (or derivative) stock solution in DMSO was prepared. […] (placed on ice after incubation).
# To measure Ca-influx, Fura-2 fluorescence was measured for 4 repetitions per well at 340 nm ex/510 nm em and 420 nm ex/510 nm em (4 measurement before and 16 after injection of drug. At t=12 sec, 20 μl of terlipressin or derivative was injected as a 500 nM solution (or serum) for a final concentration of 50 nM per well. Fura-2 fluorescence was measured for […] per well at 340 nm ex/510 nm em and 420 nm ex/510 nm em (4 measurements before and 16 after injection of drug). The controls included injected human serum alone, and terlipressin or derivative dissolved in PBS as […]. All measurements were done in hexuplicate.
# Data analysis was done using Graphpad Prism version 5.0 software (Graphpad software Inc, San Diego, Calif.). […]
# [2] = Solubility in water of the synthesized peptide; type: physicochemical; details: in words
smiles,measurement,setting,value
"CCCCCCCCCCCC(=O)NCC(=O)NCC(=O)NCC(=O)N[C@H]1CSSC[C@@H](C(=O)N2CCC[C@H]2C(=O)N[C@@H](CCCCN)C(=O)NCC(N)=O)NC(=O)[C@H](CC(N)=O)NC(=O)[C@H](CCC(N)=O)NC(=O)[C@H](Cc2ccccc2)NC(=O)[C@H](Cc2ccc(O)cc2)NC1=O [C12TerA, CH3(CH2)10CO-Gly-Gly-Gly-Cys-Tyr-Phe-Gln-Asn-Cys-Pro-Lys-Gly-NH2] (Lauroyl-GGGCYFQNCPKG-NH2; disulfide 4-9)","Activity of Various Vasopressin Analogs, 0 h","[1]; 0 h pre-incubation in pooled human serum at 37° C. (serum present), Ca-influx in HUAEC, 50 nM per well",+++
same,"Activity of Various Vasopressin Analogs, 1 h","[1]; 1 h pre-incubation in pooled human serum at 37° C., Ca-influx in HUAEC, 50 nM per well",+++
same,"Activity of Various Vasopressin Analogs, 2 h","[1]; 2 h pre-incubation in pooled human serum at 37° C., Ca-influx in HUAEC, 50 nM per well",+++
same,"Activity of Various Vasopressin Analogs, 4 h","[1]; 4 h pre-incubation in pooled human serum at 37° C., Ca-influx in HUAEC, 50 nM per well",+++
same,calcium influx after 2-hour incubation in human serum,"[1]; FIG. 11, Fura-2 fluorescence, in words",able to induce calcium influx; also recorded: pronounced calcium influx
same,solubility in water,[2],limited solubility in water

# Source: patent publication US8518876B2, “Composition for long-acting peptide analogs” (Pharmaln Corporation, priority 2007, dated 2013)
